Test results: patent US11083714B2, “Selective anti-cancer agent effective for prevention and treatment” (Molecular International Research, Inc., priority 2018, dated 2021)
Entries after “also recorded” stand apart in the source; their conditions may differ.

How the values were obtained:
[1] = mouse, in vivo
Description: To estimate the maximum tolerated dose of compounds 13-7-2 and 13-9-1 in mice, both compounds were dissolved in PBS and given to SCID mice by oral gavage.
Compound 13-7-2 was administered at a dose of 100 mg/kg, 150 mg/kg, or 200 mg/kg. Each dose group consisted of three mice.
Compound 13-9-1 was administered at a dose of 100 mg/kg, 150 mg/kg, or 200 mg/kg by oral gavage (three mice per dose group).
In a separate dose finding/toxicity test with compound 13-9-1, three mice received escalating doses of 50 mg/kg/day for 3 days, 100 mg/kg/day for 7 days, 200 mg/kg/day for 7 days, and 300 mg/kg/day for 3 days, given by oral gavage. Mice were monitored closely for toxic signs.

PANC-1 cancer stem cells = assay: Tumor formation of PANC-1 cancer stem cells (FIG. 27); format: in vivo, mice; conditions: 2×10^5 pre-treated PANC-1 cells
Description: FIG. 27. Reduction of tumor formation by de-ethylflavopereirine. Compound 13-9-1 reduced tumor formation of PANC-1 cancer stem cells.
Mice were then treated with de-ethylflavopereirine for 20 days after injection. […] Maximum tumor formation rate reached 80% at day 39, which is a highly significant difference compared to control (P=0.001 by log-rank test).

PANC-1 tumors = assay: Orthotopic PANC-1 luciferase tumors in nude mice; format: in vivo
Text: FIG. 16. Animal Study. PANC-1 cells with luciferase gene were orthotopically implanted into the pancreas of nude mice and the tumors were monitored by live-animal imaging. Longitudinal tumor growth shown by quantification of all images in the treated group (lozenges, n=9) and the untreated group (squares, n=10). Tumor burden is represented by average total photon flux (top) and its log transform (bottom).
Human PANC-1 pancreatic cancer cells were transfected with the luciferase gene to enable imaging in vivo. These cells were transplanted into the pancreas of nude mice and, after 10 days, tumors were established in the mice and they were treated with de-ethylflavopereirine by oral gavage. Longitudinal tumor progress was followed by live-animal imaging. The results of this experiment are depicted in FIGS. 16 to 21.

[2] = Alcohol-induced chronic pancreatitis model; format: in vivo; conditions: mice given ethanol and compound in the daily diet
Text: FIG. 29. Effects of de-ethylflavopereirine in a mice model of alcohol-induced chronic pancreatitis. Paraffin sections of the pancreas were stained with hematoxylin and eosin. […] This tissue protection was quantitated with an injury score (FIG. 29B). Ly6G was elevated four-fold in the pancreas of mice given ethanol while the number of neutrophils was not elevated in mice given ethanol and compound 13-9-1 (FIG. 29C).
Daily administration of ethanol to mice was followed by a binge of ethanol administration, a regimen relevant to human consumption. In the experimental group, de-ethylflavopereirine was included in the daily diet throughout the course of the experiment. There were two control groups: animals that were given no alcohol (negative control) and animals given alcohol without receiving the compound 13-9-1 (positive control). Following 10 days of alcohol treatment, the animals were gavaged with alcohol for 8 hours then euthanized, and their pancreatic tissues were collected. Pancreatic tissue sections were analyzed for histology and isolated RNA was used for quantitative PCR.

[3] = test system: two human breast cancer cell lines; assay: Proliferation of breast cancer cell lines; format: cell-based
Description: (§1) The primary goal of synthesizing de-ethylflavopereirine (compound 13-9-1) was to generate a different compound that still retains the anti-cancer cell activity of flavopereirine (compound 13-7-2). Comparison of the effects of the two compounds on proliferation of a variety of cancer cells confirmed that this goal was achieved. For example, the effect of de-ethylflavopereirine on two human breast cancer cell lines and two human prostate cancer cell lines were analyzed.

LnCap = assay: Cell Proliferation (anti-cancer), LnCap; format: cell-based, human
Description: as §1

MRC-5 = assay: MTT cell viability, normal control cell line; format: cell-based, human; conditions: MRC-5, 48 hr
Description: FIG. 7. Dose-response curves for cell viability of human ovarian cancer cell lines OVCAR-5 (triangles), SHIN-3 (squares), and OVCAR-8 (lozenges) exposed to de-ethylflavopereirine. Cells were cultured in the presence of increasing concentrations of the compound for 48 hr and cell viability was determined by MTT assay. MRC-5 (crosses), an immortalized, normal human […] cell line, was used as a control.
FIG. 8. Dose-response curves for cell viability of human pancreatic cancer cell lines MIA PaCa (squares), PANC-1 (lozenges), BxPc (crosses), and AsPc (triangles) exposed to de-ethylflavopereirine. Cells were cultured in the presence of increasing concentrations of the compound for 48 hr and cell viability was determined by MTT assay. MRC-5 (asterisks) was used as a control.
De-ethylflavopereirine was tested for its activity against ovarian, pancreatic, brain, and colon cancer cell lines. […] Cytotoxicity is assayed by reducing a yellow tetrazolium dye, 3-(4,5-dimethylthiazol-2-yl)-2,5-diphenyltetrazolium bromide (MTT), to insoluble purple formazan. The MTT assay is a colorimetric assay for determining the number of viable cells.

PANC-1, MIA PaCa, BxPc = assay: Apoptosis by flow cytometry in pancreatic cancer cell lines; format: cell-based; conditions: 10 μM and 20 μM
Description: FIG. 11. De-ethylflavopereirine induces apoptosis in pancreatic cancer cell lines PANC-1 (top), MIA PaCa (middle), and BxPc (bottom). Following exposure of cells to de-ethylflavopereirine at concentrations of 0.5 μM, 10 μM, and 20 μM, flow cytometry was used to assess the percentage of cells undergoing early apoptosis (clear), late apoptosis (dark), or necrosis (stipple). […] Values are mean±SEM (n=3). *p≤0.05 compared with control group using Student's t-test; **p≤0.01 compared with control group using Student's t-test.

[4] = test system: PANC-1 pancreatic cancer cells; assay: Cleavage of Caspase-3, Caspase-8 and PARP; format: cell-based; conditions: 0-20 μM for 48 hours; 20 μM for 0-48 hours
Text: FIG. 12. Cleavage of Caspase-3, Caspase-8, and PARP confirms that de-ethylflavopereirine induces apoptosis in PANC-1 pancreatic cancer cells. Beta-actin was used as a control.
Induction of apoptosis was also shown by detection of Caspase-8, Caspase-3, and PARP cleavage products. The cleaved protein products are identified in FIG. 12 by arrows adjacent to the right panel. The accumulation of these proteolytic fragments is a biochemical signature for apoptotic cell death.

c1ccc2c(c1)[nH]c1c2cc[n+]2ccccc12 [Compound 13-9-1, 12H-indolo[2,3-a]quinolizin-5-ium]
tolerated dose, oral administration ([1]; SCID): ≥ 300 mg/kg | deaths ([1]; SCID, po, 200 mg/kg, 48 hr): One mouse in the 200 mg/kg group died 15 min after the administration of the compound (apparently due to trauma caused by oral gavage) | toxic signs ([1]; po, 50 mg/kg/day): No abnormality was observed | tumor formation (PANC-1 cancer stem cells; Day 20): 55% | maximum tumor formation rate (PANC-1 cancer stem cells; Day 39): 80% | body weight compared with untreated control group (PANC-1 tumors; day 0 through day 40): indistinguishable | mice whose tumors were completely abolished (PANC-1 tumors; oral gavage): 22% | anti-tumor effect by tumor burden (total photon flux) (PANC-1 tumors; oral gavage, treated (n=9) vs untreated (n=10)): significant | mice whose tumors were completely abolished (number of animals) (PANC-1 tumors; oral gavage, listed as de-ethylflavopereirine): 2/9 and two of 21 | examination of internal organs (PANC-1 tumors; treated vs untreated): failed to reveal any toxic effects | final tumor weights at necropsy (PANC-1 tumors; treated vs untreated): statistically significant reduction | metastatic lesions at necropsy (PANC-1 tumors; treated vs untreated): reduced | Ly6G level / number of neutrophils in the pancreas [2]: not elevated | injury score [2]: completely prevented injury | pancreatic tissue damage (histology) [2]: prevented; also recorded: no tissue damage | Ly6G level / number of neutrophils in the pancreas ([2]; listed as de-ethylflavopereirine): completely normal Ly6G level | IC50 compared with flavopereirine [3]: same IC50s | Growth Inhibition (LnCap): Yes | IC50 (LnCap; Homo sapiens, after any period of treatment, read-out: Minimum Dose (IC50) needed to decrease growth 50% or greater versus control): 5 µM | toxicity to noncancerous cells compared with cancer cells (MRC-5): significantly less toxic | induction of apoptosis (PANC-1, MIA PaCa, BxPc): induction is dose dependent | induction of apoptosis (PANC-1, MIA PaCa, BxPc; listed as De-ethylflavopereirine): Early apoptosis is the predominant result | cleavage of Caspase-3, Caspase-8 and PARP [4]: dose- and time-dependent
